Entries after “also recorded” stand apart in the source; their conditions may differ. Numbered stars: 1 amine (or outer) side, 2 acyl side, 3 side chain; on linkers, the order of the positions; unused ones are H or OH. Square brackets hold non-standard residues; d marks the D form. Peptide text beside a SMILES is read from it. X1 = CC(O)CN(CC(=O)[*:2])[*:1]; Sar = CNCC(=O)O
Legend:
[1] = test system: K562 cells; assay: Cell toxicity assay in K562 cell culture; format: cell-based; conditions: 24 hours at 37° C. and 5% CO2
Procedure: The cytotoxicity of several compounds were evaluated using a typical cell toxicity assay in K562 cell culture. […] As a positive control, some cells were incubated without any peptoid polymer (DMEM). For a negative control, cells were incubated with DMSO (DMEM+10% DMSO).

[2] = 160 mM ethylene glycol in MilliQ water, slow cooled, −20° C., one hour
Procedure: In this experiment, four water-based samples were prepared in capillary tubes containing MilliQ purified water. One sample contained only water, and another sample contained 160 mM ethylene glycol (EG). The other two samples each contained a peptoid polymer at 9 mM.
After sample preparation, all samples were slow cooled and incubated at −20° C. on a Peltier cooled plate. After one hour, samples were removed and immediately photographed using a digital camera attached to a 180× Stereo Zoom microscope (FIG. 2A).

[3] = test system: K562 cells; assay: K562 survival after storage at −80° C. for 3 days (Alamar Blue); format: cell-based; conditions: 1% peptoid in XT Formula, K562 stored at −80° C. for 3 days
Procedure: Several compounds were examined in XT Formula at 1% concentration (i.e., 1% peptoid polymer concentration) for their effects on the cryopreservation of cells. In particular, the effects of these compounds on the survival of K562 cells stored at −80° C. for 3 days were evaluated. An Alamar Blue assay was used to assess cell survival 1 day after stored cells were thawed. A 10% DMSO formula and DMEM cell media only were used as controls.

[4] = test system: K562 cells; assay: K562 viability after storage at −20° C. for 3 days (Alamar Blue); format: cell-based; conditions: 1% peptoid in XT Formula, K562 stored at −20° C. for 3 days, vs. XT Formula alone
Procedure: Several compounds were examined in XT Formula at 1% concentration (i.e., 1% peptoid polymer concentration) for their ability to increase the viability of cells subjected to super-cooled storage. XT Formula contains HTK buffer, among other components. In particular, the effects of these compounds on the viability of K562 cells stored at −20° C. for 3 days were evaluated. An Alamar Blue assay was used to assess cell viability 7 days after stored cells were thawed.

[5] = Vitrification screening assay (critical EG concentration); format: physicochemical; conditions: for Critical Ethylene Glycol Concentration: lowest EG for complete vitrification of 20 μL sample, 5 mg/mL peptoid in formulation, liquid nitrogen immersion
Procedure: As another means of increasing the throughput of library analysis, a vitrification screening assay was performed to evaluate anti-icing efficacy. For these experiments the compounds named “Compound 11,” “Compound 12,” “Compound 25,” Compound 26,” “Compound 27,” “Compound 28,” “Compound 60,” “Compound 62,” “Compound 63,” “Compound 64,” “Compound 69,” “Compound 70,” “Compound 71,” “Compound 72,” “Compound 73,” “Compound 74,” “Compound 75,” “Compound 76,” “Compound 77,” “Compound 78,” “Compound 81,” “Compound 82,” “Compound 83,” “Compound 84,” and “Compound 85” were tested.
For these experiments, 20 μL samples were flash frozen by liquid immersion in liquid nitrogen. Ethylene glycol (EG) concentrations between 5% and 25% (v/v) were used. A concentration of 5 mg/mL of peptoid polymer compounds were used in formulation. Table 12 lists the lowest concentration of EG necessary to bring about complete vitrification of a 20 μL sample with peptoid polymer in formulation, referred to as the “critical EG concentration.” A sample of formulation without the presence of a peptoid polymer was only able to bring about vitrification at 20% or more EG. Peptoid polymers of interest were able to bring about vitrification within formulas containing EG when the concentration of EG was lower than 20%.

[6] = test system: HEK 293 cell line; assay: Cell-based cytotoxicity assay (MTT); parameters: species or system human
Procedure: A Tecan Genesis Robotic Workstation was used to prepare solutions in 96- and 384-well plates. Solutions contained culture media, buffers, a cryoprotectant composition (Compound 12) or DMSO. Solutions were adjusted to the desired pH. Serial dilutions were performed to obtain solutions containing various concentrations of Compound 12 and DMSO. Control experiments were performed using only culture media.
For these experiments, cells were seeded at low density (i.e., 10% confluence), exposed to solutions containing Compound 12 or DMSO, and placed in a 37° C. incubator. The cells were allowed to grow until control cells that were treated only with empty vehicle approached 70% confluence (typically about 3 to 5 days). Assessment for compound cytotoxicity was via MTT assay.

[7] = test system: HEK293 cells; assay: HEK293 survival after storage at −80° C. for 3 days (Alamar Blue); format: cell-based, human; conditions: 1% peptoid in XT Formula, HEK293 stored at −80° C. for 3 days, vs. XT Formula alone
Procedure: Several compounds were examined in XT Formula at 1% concentration (i.e., 1% peptoid polymer concentration) for their effects on the cryopreservation of HEK293 cells, an adherent cell line derived from human embryonic kidney cells. In particular, the effects of these compounds on the survival of HEK293 cells stored at −80° C. for 3 days were evaluated. An Alamar Blue assay was used to assess cell survival 1 day after stored cells were thawed. A 10% DMSO formula and DMEM cell media only were used as controls.

[8] = test system: HEK 293 cells; assay: Cryopreservation assay, flash freezing in liquid nitrogen, Calcein AM viability; format: cell-based, human
Procedure: Initial cryopreservation assays were performed using very simple solutions, with and without the addition of Compound 12, in order to minimize confounding outside factors. For this first set of experiments, two sample solutions were prepared. The first sample solution contained simple buffer and ethylene glycol (EG) at a concentration of 22.5% (v/v), and the second sample solution contained simple buffer, EG (22.5% (v/v)), and 5 mg/mL (0.5% (w/v)) of Compound 12.
HEK 293 cells were grown until 70% confluent, then treated with trypsin to remove adhesion proteins and yield free floating cells. Cells were counted using a hemocytometer and sample cell concentrations were adjusted to final concentrations of 10,000 cells per microliter. Cells were then compressed into tight pellets by centrifugation, and each sample was subsequently mixed with 20 μL of one of the sample solutions. Samples were then flash frozen by immersion in liquid nitrogen, followed by rewarming in a 37° C. water bath. After the freeze-thaw process, cells were suspended in a 400× volume of culture media for recovery. The positive control sample was treated with culture media at 37° C. and not subjected to the freeze-thaw process. The negative control sample was treated with culture media only during the freeze-thaw process. After recovery, cells were stained with Calcein AM for 30 minutes and cell viability was measured using a fluorescence plate reader.
A second set of experiments was performed to evaluate the cryopreservation potential of a formulation that contained 5 mg/mL of Compound 12 plus a mixture of glycols, disaccharides, and a general buffer. Post-thaw survival following vitrification in liquid nitrogen was evaluated as described above.

[9] = Crystallographic x-ray diffraction (XRD) ice crystal formation assay; format: physicochemical
Procedure: In order to increase the throughput of library analysis, a crystallographic x-ray diffraction (XRD) technique was used to evaluate ice crystal formation. For these experiments, the compounds named “Compound 2,” “Compound 8,” “Compound 10,” “Compound 11,” “Compound 12,” “Compound 13,” and “Compound 58” were tested. Compound 58 is similar to Compound 12, except that an arginine amino acid has been appended to the N-terminal end.
For these experiments, EG concentrations between 15% and 30% (v/v) were used. Typically, EG, DMSO, and other cryoprotectants are used during XRD sample analysis at concentrations of 35-40% (v/v) to vitrify solutions and avoid diffraction interference from ice crystals. Concentrations of 1 and 5 mg/mL of the peptoid and peptoid-peptide compounds were used. FIGS. 3A, 3B, and 3C illustrate exemplary XRD data under conditions of complete vitrification, partial vitrification with the presence of cubic ice, and freezing ([…]), respectively. FIG. 3D provides ice rings scores for a variety of EG concentrations and two concentrations of Compounds 2, 8, and 12.
“IceRing1” and “IceRing2” refer to ice formation scores, which range between 0 (no ice formation) and 15 (large ice formation).

[10] = Larger volume flash freeze / rewarm / −20° C. storage assay; format: physicochemical; conditions: 22.5% EG
Procedure: In order to test the usefulness of peptoid polymers at larger scales, experiments were performed using solution volumes that are similar to volumes used for standard egg and stem cell preservation. For these experiments, two samples, one containing 22.5% EG and buffer only, and another containing 22.5% EG and 5 mg/ml (0.5% w/v) of Compound 12 and buffer, were flash frozen in liquid nitrogen. […] The rewarming of the solutions in a 37° C. water bath led to an unexpected and beneficial result. The Compound 12 solution bypassed devitrification in less than 2 seconds upon rewarming (FIG. 6B, right), whereas chunks of ice were seen floating in the control sample (FIG. 6B, left) after 20 seconds. Condensation was seen on each of the tubes because the tubes were actually still much below room temperature.

[11] = serial dilutions in culture media, 37° C., about 3 to 5 days

## CNCC(=O)N(C)CC(=O)N(C)CC(=O)N(CC(=O)N(CC(=O)N(CC(=O)N(C)CC(=O)N(C)CC(=O)N(C)CC(=O)N(CC(N)=O)CC(C)O)CC(C)O)CC(C)O)CC(C)O (stereo not drawn) [Compound 15] (H-[Sar][Sar][Sar][X1][X1][X1][Sar][Sar][Sar][X1]-NH2)
[1]; 1% concentration
  cytotoxicity (cell persistence): persisted about as well as cell incubated in cell culture media alone (DMEM)

## OCCO [EG, ethylene glycol]
[2]
  ice crystal formation in capillary tube: significant ice crystal formation

## CCC(C)NCC(=O)N(CC(=O)N(CCCN1CCCC1=O)CC(=O)N(CCCN1CCCC1=O)CC(=O)N(CC(=O)N(CC(=O)N(CCCN1CCCC1=O)CC(=O)N(CCCN1CCCC1=O)CC(=O)N(CC(=O)N(CC(N)=O)C(C)CC)C(C)CC)C(C)CC)C(C)CC)C(C)CC (stereo not drawn) [Compound 76, Nsb-Nsb-Nop-Nop-Nsb-Nsb-Nop-Nop-Nsb-Nsb]
[3]
  cell survival 1 day after thaw: produced the greatest improvement in cell survival
[4]
  cell viability 7 days after thaw: improved cell viability compared to XT Formula alone
[5]
  Critical Ethylene Glycol Concentration: 15.0% (ν/ν)

## C[S+](C)[O-] [DMSO, dimethyl sulfoxide, reference compound]
[6]; [11]
  toxicity by MTT assay: did not allow for warm survival for an extended period of time at any concentration above 0.5% (v/v)
[1]; DMEM+10% DMSO
  cytotoxicity (cell persistence): suffered significant toxicity

## CCC(C)NCC(=O)N(CC(=O)N(CCOC)CC(=O)N(CCOC)CC(=O)N(CC(=O)N(CC(=O)N(CCOC)CC(=O)N(CCOC)CC(=O)N(CC(=O)N(CC(N)=O)C(C)CC)C(C)CC)C(C)CC)C(C)CC)C(C)CC (stereo not drawn) [Compound 62, Nsb-Nsb-Nmo-Nmo-Nsb-Nsb-Nmo-Nmo-Nsb-Nsb]
[7]
  cell survival 1 day after thaw: improved cell survival compared to XT Formula alone
[1]; 1% concentration
  cytotoxicity (cell persistence): persisted about as well as cell incubated in cell culture media alone (DMEM)
[4]
  cell viability 7 days after thaw: improved cell viability compared to XT Formula alone
[5]; 20 μL sample, 5 mg/mL peptoid, formulation without peptoid needs 20% or more EG
  EG required to permit vitrification: required significantly less EG in order to permit vitrification
[5]
  Critical Ethylene Glycol Concentration: 12.5% (ν/ν)

## CCC(C)NCC(=O)N(CC(=O)N(CC(=O)N(CC(=O)N(CC(=O)N(CC(=O)N(CC(=O)N(CC(=O)N(CC(=O)N(CC(N)=O)C(C)CC)C(C)CC)CC(C)O)CC(C)O)C(C)CC)C(C)CC)CC(C)O)CC(C)O)C(C)CC (stereo not drawn) [Compound 12, Nsb-Nsb-Nhp-Nhp-Nsb-Nsb-Nhp-Nhp-Nsb-Nsb]
[8]; formulation: 5 mg/mL of Compound 12 plus a mixture of glycols, disaccharides, and a general buffer, vitrification in liquid nitrogen, 16 hours post-thaw
  post-thaw survival of the cells: 98%
[8]; simple buffer, EG 22.5% (v/v), 5 mg/mL
  vitrification of cell sample during the freezing process: complete vitrification without ice formation
[8]; simple buffer, EG 22.5% (v/v), 5 mg/mL vs. same solution without compound, viability 12 hours post-thaw
  cell survival after freeze-thaw: greatly improved cell survival
[8]; simple buffer, EG 22.5% (v/v), 5 mg/mL vs. sample lacking compound
  devitrification of cell sample on rewarming: bypassed much more rapidly
[6]; at 0.5% w/v, the concentration that prevents ice formation
  toxicity by MTT assay: did not show toxicity
[6]; at concentrations four times greater than 0.5% w/v
  toxicity by MTT assay: did not show significant toxicity
[6]; [11]
  toxicity by MTT assay: did not significantly deviate from the that of culture media alone
[1]; 1% concentration
  cytotoxicity (cell persistence): persisted about as well as cell incubated in cell culture media alone (DMEM)
[4]
  cell viability 7 days after thaw: improved cell viability compared to XT Formula alone
[5]
  Critical Ethylene Glycol Concentration: 15.0% (ν/ν)
[9]; 5 mg/mL (0.5% (w/v)), EG 17.5% (v/v) in water, stream of liquid nitrogen vapor
  ice formation after flash freezing (XRD): ice-free after flash freezing
[9]; 5 mg/mL with EG 17.5% (v/v)
  anti-icing effect in comparison to EG at the same molar concentration: 500 times
[9]; 1 and 5 mg/mL peptoid, EG 15-30% (v/v)
  reduction of necessary EG concentration while preventing ice formation (XRD ice ring scores): significantly reduced necessary EG concentrations while preventing ice formation
[10]; 5 mg/ml (0.5% w/v) and buffer
  vitrification on flash freezing in liquid nitrogen: complete vitrification with no ice formation; also recorded: vitrified
[10]; 100 μL sample, 5 mg/ml
  state after overnight in −20° C. freezer: remained unfrozen

— patent US12391799B2, “Peptoid polymers and methods of use” (X-Therma, Inc., priority 2017, dated 2025)
